“Also recorded” adds a separate entry of the source.
Columns and labels:
Klebsiella pneumoniae = assay: Growth curve with melatonin and citric acid; type: cell-based; settings: MT 1-3 mg/mL, FIG. 27
Description: (§1) In additional studies, 1 mL of Klebsiella pneumoniae, Pseudomonas aeruginosa, Diplococcus pneumoniae and Streptococcus pneumoniae at the logarithmic growth stage was added into 100 mL of fresh and sterile Martin broth medium containing different concentrations of melatonin and citric acid (CA) (MT-1 mg/mL, MT-1 mg/mL-CA-1 mg/mL, MT-1 mg/mL-CA-2 mg/mL, MT-1 mg/mL-CA-3 mg/mL; MT-2 mg/mL, MT-2 mg/mL-CA-1 mg/mL, MT-2 mg/mL-CA-2 mg/mL, MT-2 mg/mL-CA-3 mg/mL; MT-3 mg/mL, MT-3 mg/mL-CA-1 mg/mL, MT-3 mg/mL-CA-2 mg/mL MT-3 mg/mL-CA-3 mg/mL).

Pseudomonas aeruginosa = assay: Growth curve with melatonin and citric acid; type: cell-based; settings: MT 1-3 mg/mL, FIG. 27
Description: as §1

[1] = molecular target: T1, citrate synthase in Pseudomonas aeruginosa (Pseudomonas aeruginosa, UniProt P14165); assay: Citrate synthase activity of bacteria after treatment; type: cell-based; settings: MT 1-3 mg/mL, 12 h, FIG. 28
T1 construct: The bacterial cells were then collected and determined for citrate synthase activity according to the protocol of the instructions for the kit; endogenous in cells; host or cells: Pseudomonas aeruginosa culture
Description: (§2) Further, 1 mL of Klebsiella pneumoniae, Pseudomonas aeruginosa, Diplococcus pneumoniae and Streptococcus pneumoniae at the logarithmic growth stage was added into 100 mL of fresh and sterile Martin broth liquid medium containing different concentrations of melatonin and citric acid (MT-1 mg/mL, MT-2 mg/mL, MT-3 mg/mL, CA-1 mg/mL, CA-2 mg/mL, CA-3 mg/mL, MT-1 mg/mL-CA-1 mg/mL, MT-2 mg/mL-CA-2 mg/mL, MT-3 mg/mL-CA-3 mg/mL) added was. Melatonin-free DMSO was used as the solvent control group, and the bacterial cells were cultured in a constant-temperature shaker at 37° C. and 220 rpm for 12 h. Thereafter, 1 mL of the bacterial solution was pipetted and centrifuged at 3000 r/min for 10 minutes. The bacterial cells were then collected and determined for citrate synthase activity according to the protocol of the instructions for the kit. Each experiment was repeated three times, and each group was set in triplicate.

[2] = system: citrate synthase in Klebsiella pneumoniae; assay: as above; type: cell-based; settings: MT 1-3 mg/mL, 12 h, FIG. 28
Description: as §2

Pasteurella multocida [3] = assay: Bacteriostatic activity, bacterial growth curve (OD600); type: cell-based; settings: MT 1, 1.5 and 2 mg/mL (lower than MBC); OD600 every 2 hours; FIG. 1
Description: In order to further verify the bacteriostatic activity of melatonin against Pasteurella multocida, the bacterial growth curve was determined in view of an increase of melatonin concentration. […] Then the bacteria were cultured in a shaker at a constant temperature of 37° C. at 220 rpm, and the bacterial culture was determined for OD600 every 2 hours with an ultraviolet spectrophotometer to detect the effect of melatonin on the bacterial growth curve. Each experiment was carried out for three times, and each group was set in triplicate.

[4] = system: citrate synthase in Streptococcus; assay: Citrate synthase activity of bacteria after treatment; type: cell-based, Streptococcus pneumoniae; settings: MT 1-3 mg/mL, 12 h, also with exogenous citric acid, FIG. 28
Description: as §2

Pasteurella multocida [5] = assay: LIVE/DEAD BacLight integrity of bacterial cell membrane; type: cell-based; settings: melatonin greater than the MIC concentration; 8, 12, 16 hours; time- and dose-dependent; FIG. 9
Description: The integrity of bacterial cell membrane was evaluated with a LIVE/DEAD BacLight bacterial detection kit. 1 mL of bacterial culture was centrifuged at 3000 rpm for 10 minutes, the supernatant was removed, and the cells were washed with 10 mL of 0.85% NaCl for 3 times. The precipitated cells were resuspended and mixed with 1 mL of 0.85% NaCl. Then a mixture of SYTO9 fluorescent nucleic acid dye and propidium iodide mixed at the equal volume (3 μL each) was added into the resuspended solution. The mixture was thoroughly mixed and incubated in the dark at room temperature for 15 minutes. 5 μL of suspension of stained bacteria was added between a slide glass and a 18 mm square cover glass. (The combination of two nucleic acid dyes in this kit can distinguish living bacteria with intact membranes from dead bacteria with damaged membranes.) The living bacteria were dyed green with SYTO9, while the dead bacteria presented as red because of the interaction between propidium iodide and the double-stranded DNA of the bacteria. The fluorescence micrographs of stained bacteria were taken by OLYMPUS IX51 inverted microscope. Each experiment was carried out in triplicate for three times.

Pasteurella multocida [6] = assay: Prevention of Pasteurella multocida infection by melatonin in mice; type: in vivo, C57BL/6 mice
Description: C57 mice purchased from the Third Military Medical University were randomly divided into four groups (10 mice in each group): a group of Pasteurella multocida+solvent control, a group of Pasteurella multocida+MT (30 mg/kg), a group of Pasteurella multocida+MT (60 mg/kg), and a group of Pasteurella multocida+MT (120 mg/kg). Before Pasteurella multocida infection, MT was injected intraperitoneally to the experimental group (injection once in the morning) for consecutive 7 days (P) or 6 days (P-1), while the control mice received the equal amount of DMSO. Thereafter, mice were infected by intraperitoneal injection of suspension of Pasteurella multocida ([…]). The survival rate of mice within 7 days was monitored and recorded. Blood samples were collected from mice, and the serum was stored at −20° C. for later ELISA test. Lung samples were collected and homogenized aseptically, and then the bacterial load was quantified by serial dilution, plate inoculation and CFU counting.
In order to measure the colonization of mouse lung bacteria before and after melatonin treatment, the lung tissues of mice were collected 24 hours and 32 hours after infection. The tissues were homogenized under aseptic conditions, and the bacterial content was determined by continuous dilution of 10 times in saline. These different dilutions were coated on the Martin broth agar in triplicate and incubated in a constant-temperature incubator at 37° C. for 24 hours to count the bacterial CFU.

[7] = preventive dose 60 mg/kg or above, intraperitoneal, consecutive 7 days before infection

T1 sequence (P14165 whole entry): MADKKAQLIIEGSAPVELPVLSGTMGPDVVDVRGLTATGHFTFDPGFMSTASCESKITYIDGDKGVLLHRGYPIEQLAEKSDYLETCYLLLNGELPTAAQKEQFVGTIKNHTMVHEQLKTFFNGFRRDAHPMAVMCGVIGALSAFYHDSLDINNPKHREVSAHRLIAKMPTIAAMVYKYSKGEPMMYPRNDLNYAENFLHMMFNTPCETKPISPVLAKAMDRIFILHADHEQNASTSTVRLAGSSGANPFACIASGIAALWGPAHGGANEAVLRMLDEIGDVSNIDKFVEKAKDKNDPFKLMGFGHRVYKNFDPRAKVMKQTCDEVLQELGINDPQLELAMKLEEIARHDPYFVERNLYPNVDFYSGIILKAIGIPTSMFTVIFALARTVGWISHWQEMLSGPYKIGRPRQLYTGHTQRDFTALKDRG

SMILES: COc1ccc2[nH]cc(CCNC(C)=O)c2c1 [melatonin, N-acetyl-5-methoxytryptamine]
- antibacterial activity (Klebsiella pneumoniae): exhibits antibacterial activity
- antibacterial activity (Pseudomonas aeruginosa): exhibits antibacterial activity
- enzyme activity of citrate synthase [1]: significantly reduces
- enzyme activity of citrate synthase [2]: significantly reduces
- bacterial growth (growth curve, OD600) (Pasteurella multocida [3]): significantly inhibits bacterial growth
- enzyme activity of citrate synthase [4]: not influenced
- damage to bacterial cell membrane (SYTO9 / propidium iodide fluorescence) (Pasteurella multocida [5]): the red fluorescence increased and the green fluorescence decreased; also recorded: damages the cell membrane
- preventive effect on the bacterial infection (Pasteurella multocida [6]; melatonin removed 24 hours before infection (P-1, 6 days), FIGS. 33 and 34): significant preventive effect
- bacterial count in the lung (Pasteurella multocida [6]; [7]): significantly reduced
- survival rate of mice (Pasteurella multocida [6]; [7]): significantly improved
